Assay results from ChEMBL document CHEMBL4257528, “Molecular insights into the interaction of Hsp90 with allosteric inhibitors targeting the C-terminal domain” (Medchemcomm, 2018).
Activity calls are given as the source filed them. The rule behind the calls is not given here.

Experiments:
[1] = biological target: Heat shock protein HSP 90-alpha (Homo sapiens) (UniProt P07900); test: Binding affinity to 1H/13C-Ile HSP90alpha CTD (unknown origin) at 1.4 mM by Methyl-TROSY […] spectrum analysis
[2] = biological target: Heat shock protein HSP 90-alpha (Homo sapiens) (UniProt P07900); test: Binding affinity to N-terminal His6-tagged HSP90alpha CTD (unknown origin) expressed in Escherichia coli BL21(DE3) at compound to protein ratio of 164 by STD-NMR method
[3] = Solubility of the compound in buffer solution; format: physicochemical
[4] = biological target: Heat shock protein HSP 90-alpha (Homo sapiens) (UniProt P07900); test: Binding affinity to 1H/13C-Ile HSP90alpha CTD (unknown origin) at 2.5 mM by Methyl-TROSY […] spectrum analysis
[5] = biological target: Heat shock protein HSP 90-alpha (Homo sapiens) (UniProt P07900); test: Binding affinity to 1H/13C-Ile HSP90alpha CTD (unknown origin) at 0.9 mM by Methyl-TROSY […] spectrum analysis

Activity [1]	Activity [2]	solubility [3]	Activity [5]	Structure (SMILES)	Activity [4]
Active	Active	Soluble	–	CO[C@@H]1[C@@H](O)[C@@H](O)[C@H](Oc2ccc(CCNC(C)=O)c(-c3cccc(F)c3)c2)OC1(C)C [CEMDOMESPIB]	–
–	–	–	–	Nc1ncnc2c1ncn2[C@@H]1O[C@H](COP(=O)(O)OP(=O)(O)NP(=O)(O)O)[C@@H](O)[C@H]1O	Active
–	Active	Soluble	Active	CO[C@@H]1[C@@H](O)[C@@H](O)[C@H](Oc2ccc3cc(NC(C)=O)c(=O)oc3c2C)OC1(C)C	–
